Assays:
[1] = tested on: sickle cell disease model; conditions: SCD mice; cited from earlier work
blood S1P levels [2] = conditions: rats dosed with 10 mg/kg; cited from earlier work
human SphK1 = conditions: read-out: human SphK1 Ki; cited from earlier work
mouse SphK2 = conditions: read-out: mouse SphK2 Ki; cited from earlier work
blood S1P concentration = conditions: treatment in mice; cited from earlier work
blood S1P levels [3] = assay: Blood S1P levels in mice after i.p. dose; format: in vivo; conditions: single 10 mg/kg i.p., C57BL/6 male mice
[4] = Blood concentration of compound in mice after i.p. dose; format: in vivo; conditions: single 10 mg/kg i.p., C57BL/6 male mice, LC-MS/MS

In the case of Cc1cc(CS(=O)(=O)c2ccccc2)cc(OCc2ccc(CN3CCC[C@@H]3CO)cc2)c1 [Compound 3a], the “blood and plasma S1P levels” value [1] is listed as “reduced” and the erythrocyte sickling [1] is listed as “decreased”.
In the case of CCCCCCCCc1ccc(-c2noc(C[C@@H]3CCCN3C(=N)N)n2)cc1 [Compound 4], the “decrease of blood S1P levels” value (blood S1P levels [2]) is listed as “about 80%”.
For Cc1ccc(S(=O)(=O)Nc2ccccc2/C=N/c2ccccc2NS(=O)(=O)c2ccc(C)cc2)cc1 [Compound 5], the Ki (human SphK1) is listed as 27 ± 3 µM.
In the case of CCCCCCCCc1ccc(-c2noc([C@@H]3CCCN3C(=N)N)n2)cc1 [Compound 7], the Ki (mouse SphK2) is given as 1.3 µM.
In the case of CCCCCCCCOc1ccc(-c2noc([C@@H]3CCCN3C(=N)N)n2)cc1C(F)(F)F.Cl [Compound 8], the “blood S1P concentration” value (blood S1P concentration) is given as “increase in blood S1P concentration”.
In the case of Cl.N=C(N)N1CCC[C@H]1c1nc(-c2ccc(OCc3ccc(C(F)(F)F)cc3)c(C(F)(F)F)c2)no1 [Compound 10, (S)-2-(3-(3-(trifluoromethyl)-4-((4-(trifluoromethyl)benzyl)oxy)phenyl)-1,2,4-oxadiazol-5-yl)pyrrolidine-1-carboximidamide], the “time blood S1P levels remained elevated” value (blood S1P levels [3]) is reported as “up to 6 hours”, the “increase of blood S1P levels” value (blood S1P levels [3]; after 4 hours) is reported as “nearly two-fold” and the “peak level of compound in blood” value [4] is reported as ~ 8 μM.

Source: paper PMC8215855 (Journal of medicinal chemistry, 2020)
